How the values were obtained:
NLRP3 inflammasome = NLRP3 inflammasome activation in LPS/ATP-treated BMDMs (immunoblot, ELISA); type: cell-based, mouse; settings: NLRP3 inflammasome-activating stimuli (Fig. 3e, 3f)
Description: For immunoblotting, polypeptides were resolved by SDS-polyacrylamide gel electrophoresis and transferred to a PVDF membrane (Bio-Rad). […] Antibody binding was visualized by chemiluminescence (ECL; Millipore) and detected by a Vilber chemiluminescence analyzer (Fusion SL 3; Vilber Lourmat).
Cell culture supernatants, mice sera and synovial fluid were analyzed for cytokine content using the BD OptEIA ELISA set (BD Pharmingen) for the detection of TNF-α, IL-6, IL-1β, and IL-18. All assays were performed as recommended by the manufacturer.
Figure 3 TIPTP robustly suppresses LPS/ATP-mediated Rubicon-p22phox interaction and ROS-mediated inflammation. (a) Structure of the TIPTP. (b) MTT assay for cell viability. BMDMs were incubated with TIPTP for the indicated times at the indicated TIPTP concentrations (upper). WCLs were used for IB with α22phox, αRubicon, or αActin (lower). (c–f) LPS (100 ng/ml)-primed BMDMs were treated with compounds for 1 h, and then activated with ATP (1 mM) for 30 min. (c) NADPH oxidase activity. (d) FACS analysis for superoxide and hydrogen peroxide (upper). Quantitative analysis of mean fluorescence intensities of ROS (lower). (e) BMDMs were incubated with increasing concentrations of compound 1 and TIPTP (com 2) (***). IP with αRubicon, followed by IB with αp22phox, αBeclin-1, αUVRAG, αRubicon. […] (f) Culture supernatants were harvested and analyzed for cytokines by ELISA. […]

human monocytes = test: LPS-primed, ATP-activated human monocytes (co-IP, ELISA, immunoblot); type: cell-based
Description: The mouse macrophage cell line RAW264.7 (ATCC TIB-71; American Type Culture Collection) and HEK293T (ATCC-11268) cells were maintained in DMEM (Invitrogen) containing 10% FBS (Invitrogen), sodium pyruvate, nonessential amino acids, penicillin G (100 IU/ml), and streptomycin (100 μg/ml). Transient transfections were performed with Lipofectamine 3000 (Invitrogen), or calcium phosphate (Clontech), according to the manufacturer’s instructions. Raw264.7 stable cell lines were generated using a standard selection protocol with 2 μg/ml of puromycin. Mouse primary bone marrow derived-macrophages (BMDMs) were isolated from C57BL/6 mice and cultured in DMEM for 3–5 days in the presence of 25 ng/ml recombinant macrophage colony stimulating factor (R&D Systems, 416-ML, Minneapolis, MN, USA), as described previously. Human adherent monocytes were prepared from PBMCs donated by healthy subjects, as described previously. […]
Cell culture supernatants, mice sera and synovial fluid were analyzed for cytokine content using the BD OptEIA ELISA set (BD Pharmingen) for the detection of TNF-α, IL-6, IL-1β, and IL-18. […]
Figure 6 TIPTP is active for cells from healthy humans or patients with RA. […] (b) Culture supernatants were harvested and analyzed for cytokines by ELISA (left). […] (e) Culture supernatants were harvested and analyzed for cytokines by ELISA (left). […]

## C[C@@H](Oc1cccc(-n2cc3c(n2)CCCC3)c1)C(=O)Nc1nnc(C(F)(F)F)s1 [TIPTP, (R)-2-(3-(4,5,6,7-tetrahydro-2H-indazol-2-yl)phenoxy)-N-(5-(trifluoromethyl)-1,3,4-thiadiazol-2-yl)propanamide]
NLRP3 inflammasome
  caspase-1 activation, and IL-1β and IL-18 maturation: significantly decreased
Human monocytes; human blood-derived monocytes, LPS/ATP, dose-dependent (Fig. 6b)
  IL-1β and IL-18 cytokines, caspase-1 activation, IL-1β and IL-18 maturation: inhibited
Human monocytes; normal human monocytes, LPS/ATP, 0.01, 0.1, 1 μM, dose-dependent (Fig. 6a)
  p22phox–Rubicon interaction: inhibited

From PMC7067850, “Identification of highly potent and selective inhibitor, TIPTP, of the p22phox-Rubicon axis as a therapeutic agent for rheumatoid arthritis” (Scientific Reports, 2020)
